This is an account of results in paper PMC9028889 (Pharmaceuticals, 2022).

Data set [1] deals with MCF10A cells. The data set is described as follows: clonogenic survival / colony formation assay, MCF10A. In kind it is cell-based, human. To be noted: for EC50: MCF-10A, clonogenic survival assay, human normal immortalized mammary epithelial cell line; for colony formation: MCF10A, 0, 1, 5, and 10 μM, 2 weeks. As to the method:
(§1) MCF10A, T47D, and MB231 cells (5 × 10^3) were seeded in 24-well plates, and cells were exposed to different CMC conjugates at different concentrations (0, 1, 5, and 10 μM) for 2 weeks, changing the medium for every 3 days with respective CMC conjugates at the indicated concentrations. After 2 weeks, cells were washed with PBS and fixed in 100% methanol for 30 min followed by staining with KaryoMax Giemsa stain for 1 h. The unfound dyes were removed by washing the wells with water and dried overnight at room temperature. Finally, cells were lysed with lysis buffer (1% SDS in 0.2 N NaOH) for 5 min, and the absorbance of the released dye was measured at 630 nm, as described before. Values are shown as mean ± SD of three experiments with 3 wells in each, for a total of 9 repeats.

The subject of another data set is normal C57BL/6 mice. The data set is described as follows: toxicity study in normal C57BL/6 mice. To be noted: 50 and 100 mg/kg body, oral gavage daily for 7 days; for morphology (kidney, liver, lung): H&E. In kind it is in vivo. As to the method:
We tested whether the synthesized conjugates are free of toxicity and safer to use in human normal cells and animal models. We treated human normal immortalized cell line (MCF10A) and normal C57BL/6 mice at different concentrations and time points.
Administration of CMC compounds to the mice: For toxicity studies, CMC1 and CMC2 conjugates at two different concentrations (50 and 100 mg/kg body) were given oral gavage daily for 7 days. At the end of the experiment, animals were euthanized, kidneys, liver, and lungs were analyzed for morphological changes. We also collected blood samples to measure Creatinine using a Creatinine assay kit (obtained from Millipore Sigma, Burlington, MA, USA, Catalog # MAK080), Alanine aminotransferase (ALT), using an ALT assay kit (obtained from the Millipore Sigma, Catalog #MAK053), Aspartate aminotransferase (AST), using an AST assay kit obtained from Millipore Sigma, Catalog #MAK055), and blood urea and nitrogen (BUN), using a urea nitrogen assay kit (obtained from ThermoFisher Scientific, Waltham, MA, USA, Catalog #EIABUN) as per the manufacturer’s instruction.

The test system of data set [2] is MB231 cells. The data set is described as follows: clonogenic survival / colony formation assay, MB231. In kind it is cell-based, human. To be noted: for EC50: Homo sapiens, clonogenic survival assay, TNBC cell line; for colony formation: MB231, 0, 1, 5, and 10 μM, 2 weeks. As to the method:
as §1

Data set [3] relates to T47D cells. The data set is described as follows: clonogenic survival / colony formation assay, T47D. Particulars: for EC50: Homo sapiens, T47D, clonogenic survival assay, ER+ BC cell line; for colony formation: T47D, 0, 1, 5, and 10 μM, 2 weeks. In kind it is cell-based, human. On the procedure:
as §1

For another data set, the system named is MMTV–PyMT–Tg mice. The data set is described as follows: spontaneous mouse mammary tumor model. It counts as in vivo. Particulars: 10 mg/kg body, three times a week by oral gavage for 7 weeks. As to the method: We chose MMTV–PyMT–Tg mouse mainly because the tumor formation and progression in this mouse is characterized by four different stages (hyperplasia, adenoma/mammary intra-epithelial neoplasia, early and late carcinoma) and also mimics human BC; the tumor develops first as ER-positive (ER^+) but ultimately becomes ER-negative BC (ER^− BC). We randomly assigned 6-week-old MMTV–PyMT–Tg mice into two groups (6 mice in each); one control and one CMC2 treated (10 mg/kg body, three times a week by oral gavage for 7 weeks). We measured the tumor volume twice a week. Tumor volume was calculated using the formula V = L × W^2/2, where L represents the largest tumor diameter, and W represents the smallest tumor diameter. Mice were euthanized after seven weeks of treatment, and tumor tissues were collected. The total tumor weight was measured. Tumor tissue sections were prepared and stained with Hematoxylin and Eosin (H&E) for morphometric analysis and Ki67 for cell proliferation analysis.
Similarly, six-week-old MMTV–PyMT–Tg mice were grouped into two groups—one control and one CMC2 treatment. The control mice received PBS, and the CMC2-treated group received CMC2 conjugate (10 mg/kg body by oral gavage, three times a week) for 7 weeks. We monitored animal weight and measured the tumor volume twice a week. At the end of the experimental period, mice were euthanized, and tumor tissues were harvested and measured for tumor weight. Tumor tissues were processed to extract RNA and protein and fixed in 10% buffered formalin phosphate solution (obtained from Fisher Scientific, Catalog #SF100-4) for morphological analysis.

Data set [4] relates to MB231 cells. The data set is described as follows: MTT cell proliferation assay, MB231. It counts as cell-based, human. To be noted: MB231, 0, 1, 5, and 10 μM, 72 h. On the procedure:
(§2) MCF10A, T47D, and MB231 cells (5 × 10^3) were seeded in 96-well plates and incubator at 37 °C with 5% CO2 in MEGM, DMEM, and RPMI medium (100 μL), respectively. After 24 h, the medium was replaced with the CMC conjugates at different concentrations (0, 1, 5, and 10 μM) for 72 h. After 72 h, 10 μL MTT reagent was added to each well and incubated for 2 h for the formation of purple formazan and then added 100 μL detergent to dissociate the formazan precipitate and measured at 570 nm. Values are shown as mean ± SD of three experiments with 3 wells in each, a total of 9 repeats.
(Tetrazolium assays rely on reduction of a dye to a coloured formazan, in cell work by metabolically active cells.)

For data set [5], the system named is T47D cells. The data set is described as follows: MTT cell proliferation assay, T47D. It counts as cell-based, human. To be noted: T47D, 0, 1, 5, and 10 μM, 72 h. On the procedure:
as §2

Data set [6] concerns MCF10A cells. The data set is described as follows: MTT cell proliferation assay, MCF10A. In kind it is cell-based, human. To be noted: MCF10A, 0, 1, 5, and 10 μM, 72 h. On the procedure: as §2

The structures appear in SMILES notation.

By EC50 is commonly meant the concentration that produces a half-maximal response. A lower EC50 goes with higher potency in that assay. For orientation: melting point means the temperature of the solid-liquid transition.

Regarding `COc1cc(/C=C/C(=O)/C=C(O)/C=C/c2ccc(OC(=O)C(Cl)Cl)c(OC)c2)ccc1OC(=O)C(Cl)Cl` [CMC1, ((1E,3Z,6E)-3-Hydroxy-5-oxohepta-1,3,6-triene-1,7-diyl)bis(2-methoxy-4,1-phenylene) bis(2,2-dichloroacetate)], the midpoint of the response with MCF10A cells [1], the EC50, lay at 8980 nM. Moreover, in the data set on normal C57BL/6 mice, the body weight entry is reported as “no changes”; the “kidney functions (serum creatinine and blood urea and nitrogen)” value is given as “no changes”; the “liver functions (ALT and AST)” value is “no changes”; the “morphology (kidney, liver, lung)” value is on record as “no changes”. In the data set on MB231 cells [2], the concentration giving a half-maximal response (EC50) was 424 nM. The same compound had an EC50 with T47D cells [3] of 1650 nM.
In turn, `COc1cc(/C=C/C(=O)/C=C(O)/C=C/c2ccc(OC(=O)CNC(=O)C(Cl)Cl)c(OC)c2)ccc1OC(=O)CNC(=O)C(Cl)Cl` [CMC2, ((1E,3Z,6E)-3-Hydroxy-5-oxohepta-1,3,6-triene-1,7-diyl)bis(2-methoxy-4,1-phenylene) bis(2-(2,2-dichloroacetamido)acetate)] showed an EC50 in the data set with MCF10A cells [1] of 9680 nM. For the same compound, in the data set with normal C57BL/6 mice, the body weight entry is given as “no changes”; the “kidney functions (serum creatinine and blood urea and nitrogen)” value was “no changes”; the “liver functions (ALT and AST)” value is listed as “no changes”; the “morphology (kidney, liver, lung)” value was “no changes”. Also, in the data set on MB231 cells [2], a half-maximal response (EC50) required 778 nM. A half-maximal effect with T47D cells [3] (EC50) was put at 1420 nM. In the data set on MMTV–PyMT–Tg mice, the lung nodules result is “reducing”; the “normal body weight and organ histology” value was “without affecting”; the overall survival rate result is recorded as “increased”; the “tumor cell proliferation (Ki67) in mammary and lung tumor tissue” value is “inhibiting”. Moreover, in the data set with MMTV–PyMT–Tg mice, the tumor growth entry is “significantly reduced”.
On to `COc1cc(/C=C/C(=O)/C=C(O)/C=C/c2ccc(OC(=O)[C@H](C)NC(=O)C(Cl)Cl)c(OC)c2)ccc1OC(=O)[C@H](C)NC(=O)C(Cl)Cl` [CMC3, ((1E,3Z,6E)-3-Hydroxy-5-oxohepta-1,3,6-triene-1,7-diyl)bis(2-methoxy-4,1-phenylene) (2S,2’S)-bis(2-(2,2-dichloroacetamido)propanoate)], for which the EC50 in the data set with MCF10A cells [1] was determined as 9710 nM; in the data set on MB231 cells [2] it was 518 nM; in the data set with T47D cells [3] it was 1600 nM.
Compound `COc1cc(/C=C/C(=O)/C=C(O)/C=C/c2ccc(OC(=O)CCNC(=O)C(Cl)Cl)c(OC)c2)ccc1OC(=O)CCNC(=O)C(Cl)Cl` [CMC4, ((1E,3Z,6E)-3-Hydroxy-5-oxohepta-1,3,6-triene-1,7-diyl)bis(2-methoxy-4,1-phenylene) bis(3-(2,2-dichloroacetamido)propanoate)] gave a melting point of 140 to 142 °C. Further, in the data set with MCF10A cells [1], the half-maximal effective concentration (EC50) amounted to 8860 nM. In addition, in the data set with MB231 cells [2], the midpoint of the response, the EC50, lay at 1130 nM. The same compound registered an EC50 in the data set on T47D cells [3] of 1260 nM.
With `COc1cc(/C=C/C(=O)/C=C(O)/C=C/c2ccc(OC(=O)[C@H](Cc3ccccc3)NC(=O)C(Cl)Cl)c(OC)c2)ccc1OC(=O)[C@H](Cc1ccccc1)NC(=O)C(Cl)Cl` [CMC5, ((1E,3Z,6E)-3-Hydroxy-5-oxohepta-1,3,6-triene-1,7-diyl)bis(2-methoxy-4,1-phenylene) (2S,2’S)-bis(2-(2,2-dichloroacetamido)-3-phenylpropanoate)], the results for the EC50 in the data set with MCF10A cells [1], with MB231 cells [2] and with T47D cells [3] were 9600 nM, 838 nM and 1240 nM, respectively.
`COc1cc(/C=C/C(=O)/C=C(O)/C=C/c2ccc(OC(=O)CCCNC(=O)C(Cl)Cl)c(OC)c2)ccc1OC(=O)CCCNC(=O)C(Cl)Cl` [CMC6, ((1E,3Z,6E)-3-Hydroxy-5-oxohepta-1,3,6-triene-1,7-diyl)bis(2-methoxy-4,1-phenylene) bis(4-(2,2-dichloroacetamido)butanoate)] showed a melting point of 130 to 132 °C. In addition, in the data set on MCF10A cells [1], a half-maximal effect (EC50) was put at 9470 nM. In the data set with MB231 cells [2], this compound displayed an EC50 of 942 nM. In the data set on T47D cells [3], this compound registered an EC50 of 1370 nM.
With `COc1cc(/C=C/C(=O)CC(=O)/C=C/c2ccc(O)c(OC)c2)ccc1O` [CUR, Curcumin, reference compound], the entries for the “cell viability / proliferation (MTT)” value in the data set with MB231 cells [4], with T47D cells [5] and in the data set with MCF10A cells [6] were “inhibited”, “inhibited” and “not”, respectively. Besides, the colony formation result with MCF10A cells [1] is reported as “not”; with MB231 cells [2] it was “inhibited”; in the data set with T47D cells [3], “inhibited”.
Consider `O=C(O)C(Cl)Cl` [DCA, Dichloroacetate, reference compound], for which the “cell viability / proliferation (MTT)” value is on record as “inhibited” with MB231 cells [4], “inhibited” in the data set with T47D cells [5] and “not” in the data set with MCF10A cells [6]. Further, the colony formation result in the data set with MCF10A cells [1] is “not”; with MB231 cells [2] it was “inhibited”; in the data set on T47D cells [3] it was “inhibited”.
